# Biological target: T1, AhR (Homo sapiens, UniProt P35869)
# T1 construct: The HepG2 CYP1A1-Luc cells do express basal luciferase activity that can be increased via potent AhR agonists or decreased via potent AhR antagonists; endogenous in cells
# T1 sequence (P35869 11-848): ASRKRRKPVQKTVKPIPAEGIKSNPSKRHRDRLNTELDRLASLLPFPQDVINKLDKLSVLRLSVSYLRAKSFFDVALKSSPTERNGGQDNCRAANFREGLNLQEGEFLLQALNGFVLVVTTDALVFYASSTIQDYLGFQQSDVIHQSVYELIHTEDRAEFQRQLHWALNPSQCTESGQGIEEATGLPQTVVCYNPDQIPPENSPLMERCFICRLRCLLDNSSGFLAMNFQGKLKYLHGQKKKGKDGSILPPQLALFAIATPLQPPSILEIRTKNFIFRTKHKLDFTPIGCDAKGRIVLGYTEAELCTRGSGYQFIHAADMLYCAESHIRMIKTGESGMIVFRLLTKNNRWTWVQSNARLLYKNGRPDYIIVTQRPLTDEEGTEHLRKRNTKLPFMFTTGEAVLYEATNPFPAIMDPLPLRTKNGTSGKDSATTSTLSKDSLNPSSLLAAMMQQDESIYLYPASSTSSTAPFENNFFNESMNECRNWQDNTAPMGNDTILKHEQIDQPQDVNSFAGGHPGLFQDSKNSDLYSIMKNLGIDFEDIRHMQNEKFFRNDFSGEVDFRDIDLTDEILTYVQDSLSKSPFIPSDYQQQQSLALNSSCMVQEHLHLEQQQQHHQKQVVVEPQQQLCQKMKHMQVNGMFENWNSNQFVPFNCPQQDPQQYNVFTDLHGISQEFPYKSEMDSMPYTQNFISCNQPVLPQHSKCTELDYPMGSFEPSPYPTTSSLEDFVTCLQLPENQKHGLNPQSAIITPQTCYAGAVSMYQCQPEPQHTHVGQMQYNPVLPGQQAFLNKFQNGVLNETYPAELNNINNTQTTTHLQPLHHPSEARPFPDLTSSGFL
# Assay: AhR Direct Luciferase Reporter Assay in HepG2 Cells
# Type: cell-based
# Settings: AhR antagonistic potency; HepG2 CYP1A1-Luc cells, 18 hours, no exogenous AhR agonist or 10 nM VAF347
# From the text: AhR Direct Luciferase Reporter Assay in HepG2 Cells.
# A stable cell line (HepG2 CYP1A1-LUC) was used in which part of the promoter region of the human CYP1A1 gene is stably integrated into the genome of human HepG2 hepatocytes (DSZM #ACC 180) in front of a Photinus pyralis Firefly Luciferase gene. A 1210 bp fragment comprising part of the human CYP1A1 promoter was isolated via SacI and BgIII restriction digestion from Lightswitch Clone S714555 (SwitchGearGenomics) and inserted between the SacI and BgIII sites in pGL4.30 (Promega #E8481) in front of the Firefly Luciferase gene. The resulting vector was linearized with NotI, transfected into HepG2 cells (DSMZ #ACC 180) and stably transfected clones selected with 250 μg/ml Hygromycin B. After repetitive rounds of subcloning and testing for robustly regulated luciferase activity after AhR agonist stimulation, a stable clonal HepG2 CYP1A1-Luc cell line was selected.
# The HepG2 CYP1A1-Luc cells do express basal luciferase activity that can be increased via potent AhR agonists or decreased via potent AhR antagonists, added to the growth medium of the cells.
# In typical reporter assays performed with this cell line, cells are grown in 96-well plates and AhR modulators are titrated into the growth medium in serial dilutions in RPMI-1640 Medium (Sigma #R7509) supplemented with 8.6% fetal calf serum (Sigma #F7524) and containing either no exogenous AhR agonist or 10 nM of the potent AhR agonist VAF347 (Calbiochem #182690). Cells are further cultivated for 18 hours and luciferase activities are determined from extracts of cells in buffers containing D-Luciferine and ATP using a LUMIstar Optima microplate Luminometer from BMG Labtech.
row,IC50 [nM],SMILES
1,< 100,CC1CCN1C(=O)C(=O)Nc1ccc2cc(-c3cc(C#N)ccc3C(F)(F)F)[nH]c2n1 (stereo not shown) [1/6]
2,100 to 1000,N#Cc1ccc(C(F)(F)F)c(-c2cc3ccc(NC(=O)C(=O)N4CCC4)nc3[nH]2)c1 [1/7]
3,100 to 1000,"N#Cc1ccc(C(F)(F)F)c(-c2cc3ccc(NC(=O)C(=O)NCc4ccccc4)nc3[nH]2)c1 [2/1, N^1-Benzyl-N^2-(2-(5-cyano-2-(trifluoromethyl)phenyl)-1H-pyrrolo[2,3-b]pyridin-6-yl)oxalamide]"
4,< 100,"N#Cc1ccc(C(F)(F)F)c(-c2cc3ccc(NC(=O)C(=O)N4CCCC4)nc3[nH]2)c1 [Example 1, N-(2-(5-Cyano-2-(trifluoromethyl)phenyl)-1H-pyrrolo[2,3-b]pyridin-6-yl)-2-oxo-2-(pyrrolidin-1-yl)acetamide]"
5,100 to 1000,"CC1(O)CN(C(=O)C(=O)Nc2ccc3cc(-c4cc(C#N)ccc4C(F)(F)F)[nH]c3n2)C1 [Example 2, N-(2-(5-Cyano-2-(trifluoromethyl)phenyl)-1H-pyrrolo[2,3-b]pyridin-6-yl)-2-(3-hydroxy-3-methylazetidin-1-yl)-2-oxoacetamide]"

# Second part, the compound before the results:
row,SMILES,IC50 [nM]
1,N#Cc1ccc(C(F)(F)F)c(-c2cc3ccc(NC(=O)C(=O)N4CCOCC4)nc3[nH]2)c1 [1/1],100 to 1000
2,CN1CCN(C(=O)C(=O)Nc2ccc3cc(-c4cc(C#N)ccc4C(F)(F)F)[nH]c3n2)CC1 [1/2],> 1000
3,CN(CC(F)(F)F)C(=O)C(=O)Nc1ccc2cc(-c3cc(C#N)ccc3C(F)(F)F)[nH]c2n1 [1/3],< 100
4,COCCN(C)C(=O)C(=O)Nc1ccc2cc(-c3cc(C#N)ccc3C(F)(F)F)[nH]c2n1 [1/4],100 to 1000
5,N#Cc1ccc(C(F)(F)F)c(-c2cc3ccc(NC(=O)C(=O)N4CCC5(CC5)C4)nc3[nH]2)c1 [1/5],< 100
